Tests used:
[1] = system: Caco-2 cells; type: cell-based; settings: for change in sialylated glycans / increase in abundance of non-decorated complex/hybrid type N-glycans / change in fucosylated glycans / fucosylation / increase in abundance of high mannose type N-glycans / change in high mannose type glycans / change in non-decorated complex/hybrid type N-glycans / decrease in fucosylated compounds / change in the groups of cell surface glycans presented: Caco-2, 72 h; for change in sialylated glycans / change in fucosylated glycans / fucosylation: fucose 25 mM, butyrate 10 mM; for change in sialylated glycans / change in fucosylated glycans / fucosylation / increase in abundance of high mannose type N-glycans / change in high mannose type glycans / change in non-decorated complex/hybrid type N-glycans: glutamine 10 mM; for decrease in sialylated glycans collectively / increase in fucosylated glycans collectively: GlcNAc 25 mM, cell line not given; for decrease in sialylated glycans collectively / increase in fucosylated glycans collectively / increase in abundance of non-decorated complex/hybrid type N-glycans: GalNAc; for increase in abundance of non-decorated complex/hybrid type N-glycans / increase in abundance of high mannose type N-glycans: fructose 50 mM; for change in fucosylated glycans / fucosylation: acetate, lactate; for fold decrease of Hex6HexNAc6Fuc1NeuAc3 / fold decrease of Hex7HexNAc7Fuc1NeuAc1 / fold increase of Hex6HexNAc6NeuAc1: Caco-2, SCFA 10 mM; for change in high mannose type glycans / change in the groups of cell surface glycans presented: treated vs untreated; for change in high mannose type glycans / decrease in fucosylated compounds: lactose 70 mg/L; for change in non-decorated complex/hybrid type N-glycans: galactose; for decrease in fucosylated compounds: high galactose; for change in the groups of cell surface glycans presented: glucose 25 mM, glutamate 2 mM, glutathione 2 mM
Description: (§1) We examined whether supplementation of free monosacchaides derived from diet changes N-glycosylation outcomes on the intestinal cell-surface at concentrations relevant to physiological conditions. Changes in glycosylation were assessed by globally releasing glycans from membrane proteins extracted from fully differentiated (Caco-2) and partially differentiated (HT-29) intestinal epithelial cells and analyzing the mixture by porous graphitized carbon (PGC)-LC-MS. […] The glycan profile under normal growth conditions was used as a frame of reference with which to compare the glycome at varied environments.
(§2) Human colorectal adenocarcinoma Caco-2 cells derived from a person, were obtained from American Type Culture Collection (ATCC, VA) and grown in Eagle's Minimum Essential Medium (EMEM) supplemented with non-essential amino acids, 2 mM L-glutamine, 10% (v/v) fetal bovine serum (Life Technologies, NY), 1 mM sodium pyruvate, 1.5 g/L sodium bicarbonate, 100 U/mL penicillin, and 100 μg/mL streptomycin. Alternatively, Caco-2 cells were grown in Dulbecco's Modified Eagle's Medium (DMEM) supplemented with 10% (v/v) fetal bovine serum, 100 U/mL penicillin, and 100 μg/mL streptomycin. Human colorectal adenocarcinoma HT-29 cells, derived from a person, were obtained from ATCC and grown in McCoy's 5A medium supplemented with 10% (v/v) fetal bovine serum, 100 U/mL penicillin, and 100 μg/mL streptomycin. Cells were subcultured at 80% confluency and maintained at 37° C. in a humidified incubator with 5% CO=2. All treatments were added to the media after cell differentiation. Caco-2 cells were fully differentiated 14-days post-confluency. HT-29 cells were partially differentiated 4-days post-confluency. After 72 h, cells were collected in biological triplicates by scraping A fixed count of 2×10^6 viable cells was used for each experiment Passage number between experiments was controlled to no higher than P40 and a delta P of no more than 20. High passage cells were scraped after P80. Media was renewed three times a week unless specified. Monolayer integrity and quality of cell borders were evaluated under the microscope routinely during growth and before harvest.
(§3) In brief harvested cells were resuspended in homogenization buffer containing 0.25 M sucrose, 20 mM HEPES-KOH (pH 7.4), and 1:100 protease inhibitor (EMD Millipore, CA). Cell lysis was performed on ice using a probe sonicator (Qsonica, CT) with five alternating and on and off pulses in 5 and 10 s intervals, respectively. Lysates were […] at 2,000×g for 10 min to remove the nuclear fraction and cellular debris. The supernatant was collected and brought to 1 mL with homogenization buffer for ultracentrifugation at 200,000×g for 45 min at 4° C. The pallet was resuspended and repelleted by ultracentrifugation in 0.2 M Na2CO3 (pH 11) followed by water to fragment the endoplasmic reticulum and remove the cytoplasmic fraction, respectively. The resulting membrane faction was isolated and stored at −20° C. until further processing.
(§4) Membrane pellets were resuspended with 100 μL of 100 mM ammonium bicarbonate in 5 mM dithiothreitol and heated for 10 s at 100° C. to thermally denature the proteins. […] After addition of 400 μL of chilled ethanol, samples were placed in −80° C. for 1.5 h and centrifuged for 20 min at 21,130×g to precipitate residual deglycosylated proteins. The supernatant containing the released N-glycans was collected and dried. N-Glycans were purified by solid phase extraction containing a porous graphitized carbon (PGC) matrix. Eluted fractions were dried in vacuo.

[2] = system: THP-1 cells; experiment: Lectin array of THP-1 monocyte cell surface glycan composition after monosaccharide supplementation; type: cell-based; settings: 3 days
Description: THP-1 cells (monocyte cell line) were incubated with different sugars (i.e. monosaccharides) for 3 days. Lectin arrays were used to detect changes in the cell surface glycan composition. Secreted HDL from the cell supernatant (monocytes secrete their own HDL) was isolated and then analyzed to determine the glycan composition.
• ConA (Concanavalin A): binds internal and nonreducing terminal α-D-mannosyl (αMan) and α-D-glucosyl groups (αGIc) • JAC (Jacalin): binds galactose-containing O-glycoproteins (Galβ3GalNac) • SNA (Sambucus nigra): binds sialic acid attached to terminal galactose in α-2,6 and to a lesser degree, α-2,3 linkage (Neu5Acα6Gal/GalNac) • AAL (Aleuria auanda lectin): binds fucose linked (α-1,6) to N-acetylglucosamine or to fucose linked (α-1,3) to N-acetyllactosamine related structures, exposed core (α-1, 6) and outer arm (α-1, 2 or α-1, 3) linked fucose moieties. Sugar Treatments: • L-fucose: Tested 2 doses: 300 umol/L (physiologic) and 100 mmol/L. (Marquardt T, Blood, December 15; 94(12):3976-85, 1999): Named L-Fuc Low and L-Fuc High • Fructose: Tested 2 doses: 27 mmol/L (physiologic) and 100 mmol/L. (Hui H, Pancreas, August 38(6): 706-12, 2009); Named Fruc Low and Fruc High • N-acetylglucosamine (GlcNAc): Tested 1 dose: 100 mmol/L. (Villiger TK, Controlling the time evolution of mAb N-finked glycosylation, Part I: Microbioreactor experiments, Biotechnol Prog, September; 32(5):1123-1134, 2016) • Galactose: The two doses for the galactose treatment in the glycan array experiments were: 150 mmol/L and 75 mmol/L. (Villiger TK, Controlling the time evolution of mAb N-linked glycosylation, Part II: Model-based predictions, Biotechnol Prog, September; 32(5):135-1148, 2016)

[3] = system: HT-29 cells; experiment: Cell surface N-glycan profiling (PGC-LC-MS) of HT-29 after supplementation; type: cell-based, Human; settings: for change in fucosylated glycans / change in high mannose type glycans / change in the HT-29 glycome / major groups of glycans: HT-29, 72 h; for change in fucosylated glycans / change in high mannose type glycans: fructose 50 mM, glutamine 10 mM; for change in high mannose type glycans: glutamate 2 mM; for change in the HT-29 glycome / major groups of glycans: acetate, lactate 10 mM, glutathione 2 mM
Description: as §1, §2, §3, §4

[4] = cited from earlier work
[5] = single dose (GlcNAc 100 mmol/L) or dose not distinguished
[6] = high dose (galactose 150 mmol/L, fructose 100 mmol/L, L-fucose 100 mmol/L)
[7] = low dose (galactose 75 mmol/L, fructose 27 mmol/L, L-fucose 300 umol/L)

SMILES: CC(=O)N[C@H]1[C@H]([C@H](OC(C)=O)[C@@H](COC(C)=O)OC(C)=O)OC(OC(C)=O)(C(=O)O)C[C@@H]1OC(C)=O (stereo partly drawn) [Ac5-Sia, 2,4,7,8,9-penta-O-acetyl N-acetylneuraminic acid]
- change in monofucosylated glycans ([1]; Ac5-Sia up to 10 mM, 72 h): significant increases
- change in sialylated glycans ([1]; Ac5-Sia up to 10 mM): remained relatively unchanged

SMILES: CC(=O)N[C@H]1C(O)O[C@H](CO)[C@H](O)[C@@H]1O (stereo partly drawn) [GalNAc, N-acetylgalactosamine]
- decrease in sialylated glycans collectively ([1]; 72 h): 31.9%
- increase in fucosylated glycans collectively ([1]; 72 h): 120%
- increase in abundance of non-decorated complex/hybrid type N-glycans [1]: 234%
- fold increase of Hex3HexNAc4Fuc1 ([1]; GalNAc supplementation, 72 h): 13 fold
- fold increase of Hex3HexNAc5Fuc1 ([1]; GalNAc supplementation, 72 h): 7 fold

SMILES: CC(=O)N[C@H]1C(O)O[C@H](CO)[C@@H](O)[C@@H]1O (stereo partly drawn) [GlcNAc, N-acetylglucosamine]
- AAL binding (fucosylated glycans) [2, 5]: decreased
- ConA binding (glucose or mannose-terminated glycans) [2, 5]: decreased
- JAC binding (terminal galactose containing glycans) [2, 5]: decreased
- SNA binding (terminal sialic acid) [2, 5]: did not change
- decrease in sialylated glycans collectively ([1]; 72 h): 53.9%
- increase in fucosylated glycans collectively ([1]; 72 h): 61.2%

SMILES: CC(=O)O [acetate]
- change in fucosylated glycans / fucosylation [1]: significant increase
- fold decrease of Hex6HexNAc6Fuc1NeuAc3 ([1]; 72 h): 4.7 fold
- fold decrease of Hex7HexNAc7Fuc1NeuAc1 ([1]; 72 h): 2.7 fold
- fold increase of Hex6HexNAc6NeuAc1 ([1]; 72 h): 8.1 fold

SMILES: CCCC(=O)O [butyrate]
- fold increase of each of Hex3HexNAc4Fuc1, Hex6HexNAc7Fuc1, Hex7HexNAc7Fuc1 ([3]; HT-29, butyrate 10 mM, 72 h): more than 13 fold
- increase in fucosylation ([3]; HT-29, butyrate 10 mM, 72 h): 262%

SMILES: O=C(CO)[C@@H](O)[C@H](O)[C@H](O)CO [fructose]
- AAL binding (fucosylated glycans) [2, 6]: decreased
- JAC binding (terminal galactose containing glycans) [2, 6]: decreased
- SNA binding (terminal sialic acid) [2, 6]: no effect
- AAL binding (fucosylated glycans) [2, 7]: decreased
- SNA binding (terminal sialic acid) [2, 7]: decreased
- ConA binding (glucose or mannose-terminated glycans) [2, 5]: decreased
- increase in abundance of high mannose type N-glycans [1]: 511%
- increase in abundance of non-decorated complex/hybrid type N-glycans [1]: 672%
- fold increase of each of Hex3HexNAc4Fuc1, Hex4HexNAc5Fuc1, Hex6HexNAc4Fuc1, Hex5HexNAc5Fuc1 ([1]; Caco-2, fructose 50 mM, 72 h): more than 4 fold
- change in fucosylated glycans [3]: remained unaltered
- change in high mannose type glycans [3]: remained unaltered

SMILES: C[C@H](O)[C@@H](O)[C@@H](O)[C@H](O)C=O [fucose, L-fucose]
- AAL binding (fucosylated glycans) [2, 6]: decreased
- ConA binding (glucose or mannose-terminated glycans) [2, 6]: decreased
- JAC binding (terminal galactose containing glycans) [2, 6]: decreased
- SNA binding (terminal sialic acid) [2, 6]: increased
- AAL binding (fucosylated glycans) [2, 7]: decreased
- ConA binding (glucose or mannose-terminated glycans) [2, 7]: decreased
- JAC binding (terminal galactose containing glycans) [2, 7]: decreased
- SNA binding (terminal sialic acid) [2, 7]: increased
- change in sialylated glycans ([1]; Ac5-Sia up to 10 mM): overall decrease
- change in fucosylated glycans / fucosylation [1]: neither the total levels nor the degree of fucosylation deviated significantly

SMILES: O=C[C@H](O)[C@@H](O)[C@@H](O)[C@H](O)CO [galactose]
- AAL binding (fucosylated glycans) [2, 6]: increased
- ConA binding (glucose or mannose-terminated glycans) [2, 6]: increased
- JAC binding (terminal galactose containing glycans) [2, 6]: increased
- SNA binding (terminal sialic acid) [2, 6]: increased
- JAC binding (terminal galactose containing glycans) [2, 7]: decreased
- SNA binding (terminal sialic acid) [2, 7]: increased
- change in high mannose type glycans [1]: significant Increases
- change in non-decorated complex/hybrid type N-glycans [1]: significant Increases
- decrease in fucosylated compounds [1]: 20%
- decrease in relative abundances of fucosylated and sialylated glycans ([1]; Caco-2, galactose-treated, 72 h): 12-28%
- afucosylated glycans as share of all complex/hybrid glycans ([1]; galactose-treated Caco-2 (untreated 15%)): 46%
- asialylated glycans as share of all complex/hybrid glycans ([1]; galactose-treated Caco-2 (untreated 23%)): 58%

SMILES: N[C@@H](CCC(=O)O)C(=O)O [glutamate]
- change in the groups of cell surface glycans presented [1]: relatively unaffected
- change in high mannose type glycans [3]: unperturbed
- decline in fucosylation with respect to the control ([3]; HT-29, glutamate 2 mM, 72 h): 44.4%

SMILES: NC(=O)CC[C@H](N)C(=O)O [glutamine, L-glutamine]
- change in high mannose type glycans [1]: significant increases
- increase in abundance of high mannose type N-glycans [1]: 507%
- change in sialylated glycans ([1]; Ac5-Sia up to 10 mM): remarkable constancy
- change in fucosylated glycans / fucosylation [1]: significant increases
- change in non-decorated complex/hybrid type N-glycans [1]: significant increases
- fold increase of each of Man 5-Man 9 ([1]; Caco-2, glutamine 10 mM, 72 h): more than 6 fold
- change in fucosylated glycans [3]: significant increases
- change in high mannose type glycans [3]: significant increases
- change in non-decorated complex/hybrid types of glycans ([3]; HT-29, glutamine 10 mM, 72 h): significant increases

SMILES: N[C@@H](CCC(=O)N[C@@H](CS)C(=O)NCC(=O)O)C(=O)O [glutathione]
- change in the groups of cell surface glycans presented [1]: essentially unaltered
- change in the HT-29 glycome / major groups of glycans [3]: essentially unaltered
- increase in high mannose type glycans ([3]; HT-29, glutathione 2 mM, 72 h): 37.1%

SMILES: CC(O)C(=O)O (stereo not drawn) [lactate]
- change in fucosylated glycans / fucosylation [1]: significant increase
- fold decrease of Hex6HexNAc6Fuc1NeuAc3 ([1]; 72 h): 3.7 fold
- fold decrease of Hex7HexNAc7Fuc1NeuAc1 ([1]; 72 h): 3.4 fold
- fold increase of Hex6HexNAc6NeuAc1 ([1]; 72 h): 10 fold
- change in the HT-29 glycome / major groups of glycans [3]: minimal effects

SMILES: OC[C@H]1O[C@@H](O[C@H]2[C@H](O)[C@@H](O)C(O)O[C@@H]2CO)[C@H](O)[C@@H](O)[C@H]1O (stereo partly drawn) [lactose]
- change in high mannose type glycans [1]: did not cause dramatic changes
- decrease in fucosylated compounds [1]: 20%

SMILES: CC(=O)N[C@H]1[C@H]([C@H](O)[C@H](O)CO)OC(O)(C(=O)O)C[C@@H]1O (stereo partly drawn) [sialic acid]
- pKa [4]: 2.6

— US12055553B2, “Method for diagnosing risk for inflammatory disease through glycan profiling” (The Regents of the University of California, priority 2017, dated 2024)
